Data from patent US20090123907A1 (priority 2004, published 2009).

Assays:
platelets [1] = assay: Platelets in 2% lysine citrate and CPD, 15 days storage; assay type: cell-based; details: PRP, CPD + 2% lysine citrate, room temperature
Description: The second experiment was similar to the first platelet experiment reported above with the primary difference that the primary anticoagulant was CPD (citrate-phosphate-dextrose). This anticoagulant contains approximately 0.4% citrate by weight but also contains dextrose as an energy source for the platelets (and also, unfortunately, for any bacteria that may be present). […] It was believed that the CPD might further stabilize the platelets by providing an energy source.

platelets [2] = assay: Platelet rich plasma supplemented with 2% lysine citrate, 25 days storage; assay type: cell-based; details: room temperature
Description: […]. In this experiment plasma is centrifuged to create platelet rich plasma (PRP). […]. For the first fifteen days the platelet parameters remain essentially unchanged. During the next five day period (days 16-20) the platelet count drifts down slightly and LDH level increases slightly. During the last five days (days 21-25), the platelet count drops off rather precipitously and the LDH level rises rather steeply. Yet clotting time remains relatively constant.

## NCCCC[C@H](N)C(=O)O.O=C(O)CC(O)(CC(=O)O)C(=O)O [Lysine Citrate, lysine citrate]
Platelets [1]; Day 1
  Clotting time: 29 s
  Count (platelets): 2.41 × 10^5 per μl
  LDH: 98 IU/L
Platelets [1]; Day 2
  Clotting time: 30 s
  Count (platelets): 2.41 × 10^5 per μl
  LDH: 96 IU/L
Platelets [1]; Day 3
  Clotting time: 30 s
  Count (platelets): 2.40 × 10^5 per μl
  LDH: 97 IU/L
Platelets [1]; Day 4
  Clotting time: 31 s
  Count (platelets): 2.40 × 10^5 per μl
  LDH: 98 IU/L
Platelets [1]; Day 5
  Clotting time: 32 s
  Count (platelets): 2.38 × 10^5 per μl
  LDH: 99 IU/L
Platelets [1]; Day 6
  Clotting time: 30 s
  Count (platelets): 2.41 × 10^5 per μl
  LDH: 101 IU/L
Platelets [1]; Day 7
  Clotting time: 28 s
  Count (platelets): 2.42 × 10^5 per μl
  LDH: 100 IU/L
Platelets [1]; Day 8
  Clotting time: 28 s
  Count (platelets): 2.40 × 10^5 per μl
  LDH: 102 IU/L
Platelets [1]; Day 9
  Clotting time: 31 s
  Count (platelets): 2.38 × 10^5 per μl
  LDH: 100 IU/L
Platelets [1]; Day 10
  Clotting time: 30 s
  Count (platelets): 2.38 × 10^5 per μl
  LDH: 98 IU/L
Platelets [1]; Day 11
  Clotting time: 29 s
  Count (platelets): 2.35 × 10^5 per μl
  LDH: 103 IU/L
Platelets [1]; Day 12
  Clotting time: 30 s
  Count (platelets): 2.34 × 10^5 per μl
  LDH: 101 IU/L
Platelets [1]; Day 13
  Clotting time: 30 s
  Count (platelets): 2.34 × 10^5 per μl
  LDH: 103 IU/L
Platelets [1]; Day 14
  Clotting time: 31 s
  Count (platelets): 2.35 × 10^5 per μl
  LDH: 105 IU/L
Platelets [1]; Day 15
  Clotting time: 26 s
  Count (platelets): 2.28 × 10^5 per μl
  LDH: 122 IU/L
Platelets [2]; Day 1, PRP
  Clotting time: 30 s
  Count (platelets): 3.80 × 10^5 per μl
  LDH: 106 IU/L
Platelets [2]; Day 2, PRP
  Clotting time: 30 s
  Count (platelets): 3.75 × 10^5 per μl
  LDH: 108 IU/L
Platelets [2]; Day 3, PRP
  Clotting time: 30 s
  Count (platelets): 3.76 × 10^5 per μl
  LDH: 109 IU/L
Platelets [2]; Day 4, PRP
  Clotting time: 30 s
  Count (platelets): 3.80 × 10^5 per μl
  LDH: 108 IU/L
Platelets [2]; Day 5, PRP
  Clotting time: 31 s
  Count (platelets): 3.76 × 10^5 per μl
  LDH: 108 IU/L
Platelets [2]; Day 6, PRP
  Clotting time: 31 s
  Count (platelets): 3.75 × 10^5 per μl
  LDH: 106 IU/L
Platelets [2]; Day 7, PRP
  Clotting time: 32 s
  Count (platelets): 3.76 × 10^5 per μl
  LDH: 109 IU/L
Platelets [2]; Day 8, PRP
  Clotting time: 30 s
  Count (platelets): 3.76 × 10^5 per μl
  LDH: 109 IU/L
Platelets [2]; Day 9, PRP
  Clotting time: 31 s
  Count (platelets): 3.80 × 10^5 per μl
  LDH: 108 IU/L
Platelets [2]; Day 10, PRP
  Clotting time: 30 s
  Count (platelets): 3.77 × 10^5 per μl
  LDH: 109 IU/L
Platelets [2]; Day 11, PRP
  Clotting time: 29 s
  Count (platelets): 3.77 × 10^5 per μl
  LDH: 109 IU/L
Platelets [2]; Day 12, PRP
  Clotting time: 30 s
  Count (platelets): 3.75 × 10^5 per μl
  LDH: 108 IU/L
Platelets [2]; Day 13, PRP
  Clotting time: 30 s
  Count (platelets): 3.81 × 10^5 per μl
  LDH: 110 IU/L
Platelets [2]; Day 14, PRP
  Clotting time: 31 s
  Count (platelets): 3.80 × 10^5 per μl
  LDH: 110 IU/L
Platelets [2]; Day 15, PRP
  Clotting time: 30 s
  Count (platelets): 3.76 × 10^5 per μl
  LDH: 109 IU/L
Platelets [2]; Day 16, PRP
  Clotting time: 29 s
  Count (platelets): 3.75 × 10^5 per μl
  LDH: 109 IU/L
Platelets [2]; Day 17, PRP
  Clotting time: 30 s
  Count (platelets): 3.74 × 10^5 per μl
  LDH: 108 IU/L
Platelets [2]; Day 18, PRP
  Clotting time: 30 s
  Count (platelets): 3.76 × 10^5 per μl
  LDH: 110 IU/L
Platelets [2]; Day 19, PRP
  Clotting time: 31 s
  Count (platelets): 3.74 × 10^5 per μl
  LDH: 111 IU/L
Platelets [2]; Day 20, PRP
  Clotting time: 30 s
  Count (platelets): 3.74 × 10^5 per μl
  LDH: 111 IU/L
Platelets [2]; Day 21, PRP
  Clotting time: 30 s
  Count (platelets): 3.56 × 10^5 per μl
  LDH: 103 IU/L
Platelets [2]; Day 22, PRP
  Clotting time: 31 s
  Count (platelets): 3.42 × 10^5 per μl
  LDH: 105 IU/L
Platelets [2]; Day 23, PRP
  Clotting time: 26 s
  Count (platelets): 3.28 × 10^5 per μl
  LDH: 122 IU/L
Platelets [2]; Day 24, PRP
  Clotting time: 29 s
  Count (platelets): 2.91 × 10^5 per μl
  LDH: 159 IU/L
Platelets [2]; Day 25, PRP
  Clotting time: 26 s
  Count (platelets): 2.24 × 10^5 per μl
  LDH: 279 IU/L
